Laboratory results reported in US8129399B2, “Aminopyrimidines useful as kinase inhibitors” (Vertex Pharmaceuticals Incorporated, priority 2005, dated 2012).
Read-outs that look alike come from different tables or passages of the source.

Assays:
Aurora-2 (Aurora A) = target: T1, Aurora-2 (Aurora A) (Homo sapiens, UniProt O14965); test: Aurora-2 (Aurora A) inhibition assay, coupled enzyme; assay type: biochemical
T1 sequence (O14965 1-403): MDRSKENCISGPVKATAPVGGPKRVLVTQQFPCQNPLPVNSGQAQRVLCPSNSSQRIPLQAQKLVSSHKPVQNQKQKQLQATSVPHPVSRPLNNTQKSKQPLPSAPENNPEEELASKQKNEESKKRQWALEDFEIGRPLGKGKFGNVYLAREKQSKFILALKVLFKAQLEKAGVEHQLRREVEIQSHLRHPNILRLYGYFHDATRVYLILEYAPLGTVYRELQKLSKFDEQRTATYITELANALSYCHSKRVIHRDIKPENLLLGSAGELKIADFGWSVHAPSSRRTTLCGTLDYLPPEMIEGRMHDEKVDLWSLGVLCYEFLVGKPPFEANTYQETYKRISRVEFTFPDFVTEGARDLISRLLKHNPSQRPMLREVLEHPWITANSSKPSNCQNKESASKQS
Protocol: Assays were carried out in a mixture of 100 mM Hepes (pH7.5), 10 mM MgCl2, 1 mM DTT, 25 mM NaCl, 2.5 mM phosphoenolpyruvate, 300 μM NADH, 30 μg/ml pyruvate kinase and 10 μg/ml lactate dehydrogenase. […] Assays were carried out at 30° C. and in the presence of 40 nM Aurora-2.
An assay stock buffer solution was prepared containing all of the reagents listed above, with the exception of Aurora-2 and the test compound of interest. […] The plate was preincubated for 10 minutes at 30° C. and the reaction initiated by addition of 10 μl of Aurora-2. Initial reaction rates were determined with a Molecular Devices SpectraMax Plus plate reader over a 10 minute time course. IC50 and Ki data were calculated from non-linear regression analysis using the Prism software package (GraphPad Prism version 3.0cx for Macintosh, GraphPad Software, San Diego Calif., USA).

Aurora-1 (Aurora B) = Aurora-1 (Aurora B) (Homo sapiens, UniProt Q96GD4); test: Aurora-1 (Aurora B) inhibition assay (radiometric); assay type: biochemical; conditions: 800 μM ATP; read-out: Aurora B Ki
Sequence of Aurora-1 (Aurora B) (Q96GD4 whole entry): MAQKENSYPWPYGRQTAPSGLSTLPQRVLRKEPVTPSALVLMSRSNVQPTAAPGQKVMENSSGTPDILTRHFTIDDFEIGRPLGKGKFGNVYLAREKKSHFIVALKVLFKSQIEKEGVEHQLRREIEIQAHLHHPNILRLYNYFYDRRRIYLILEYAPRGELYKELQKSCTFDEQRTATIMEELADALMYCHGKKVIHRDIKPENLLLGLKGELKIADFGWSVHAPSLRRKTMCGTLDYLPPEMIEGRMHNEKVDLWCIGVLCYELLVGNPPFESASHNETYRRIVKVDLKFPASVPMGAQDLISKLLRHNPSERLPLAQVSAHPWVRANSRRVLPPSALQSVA
Protocol: An assay buffer solution was prepared which consisted of 25 mM HEPES (pH 7.5), 10 mM MgCl2, 0.1% BSA and 10% glycerol. […] To 22 μL of the Aurora-B solution, in a 96-well plate, was added 2 μl of a compound stock solution in DMSO and the mixture allowed to equilibrate for 10 minutes at 25° C. The enzyme reaction was initiated by the addition of 16 μl stock [γ-^33P]-ATP solution (˜20 nCi/μL) prepared in assay buffer, to a final assay concentration of 800 μM. The reaction was stopped after 3 hours by the addition of 16 μL 500 mM phosphoric acid and the levels of ^33P incorporation into the peptide substrate were determined by the following method.
A phosphocellulose 96-well plate (Millipore, Cat no. MAPHNOB50) was pre-treated with 100 μL of a 100 mM phosphoric acid prior to the addition of the enzyme reaction mixture (40 μL). The solution was left to soak on to the phosphocellulose membrane for 30 minutes and the plate subsequently washed four times with 200 μL of a 100 mM phosphoric acid. […] Levels of non-enzyme catalyzed background radioactivity were determined by adding 16 μL of the 500 mM phosphoric acid to control wells, containing all assay components (which acts to denature the enzyme), prior to the addition of the [γ-^33P]-ATP solution. Levels of enzyme catalyzed ^33P incorporation were calculated by subtracting mean background counts from those measured at each inhibitor concentration. […] Ki values were calculated from initial rate data by non-linear regression using the Prism software package (Prism 3.0, Graphpad Software, San Diego, Calif.).

Colo205 cells = test: Colo205 cell proliferation, 3H thymidine incorporation; assay type: cell-based; conditions: Homo sapiens
Protocol: Colo205 cells were seeded in 96 well plates and serially diluted compound was added to the wells in duplicate. Control groups included untreated cells, the compound diluent (0.1% DMSO alone) and culture medium without cells.
To measure proliferation, 3 h prior to the end of the experiment 0.5 μCi of 3H thymidine was added to each well. Cells were then harvested and the incorporated radioactivity counted on a Wallac microplate beta-counter. Cell viability was assessed using Promega CellTiter 96AQ to measure MTS conversion. Dose response curves were calculated using either Prism 3.0 (GraphPad) or SoftMax Pro 4.3.1 LS (Molecular Devices) software.

[1] = target: N-terminally truncated (Δ 27) Abl kinase (Homo sapiens, UniProt P00519); test: Abl kinase activity inhibition assay, coupled enzyme; assay type: biochemical
Sequence of N-terminally truncated (Δ 27) Abl kinase (P00519 28-1130 limits assumed, stated change not applied): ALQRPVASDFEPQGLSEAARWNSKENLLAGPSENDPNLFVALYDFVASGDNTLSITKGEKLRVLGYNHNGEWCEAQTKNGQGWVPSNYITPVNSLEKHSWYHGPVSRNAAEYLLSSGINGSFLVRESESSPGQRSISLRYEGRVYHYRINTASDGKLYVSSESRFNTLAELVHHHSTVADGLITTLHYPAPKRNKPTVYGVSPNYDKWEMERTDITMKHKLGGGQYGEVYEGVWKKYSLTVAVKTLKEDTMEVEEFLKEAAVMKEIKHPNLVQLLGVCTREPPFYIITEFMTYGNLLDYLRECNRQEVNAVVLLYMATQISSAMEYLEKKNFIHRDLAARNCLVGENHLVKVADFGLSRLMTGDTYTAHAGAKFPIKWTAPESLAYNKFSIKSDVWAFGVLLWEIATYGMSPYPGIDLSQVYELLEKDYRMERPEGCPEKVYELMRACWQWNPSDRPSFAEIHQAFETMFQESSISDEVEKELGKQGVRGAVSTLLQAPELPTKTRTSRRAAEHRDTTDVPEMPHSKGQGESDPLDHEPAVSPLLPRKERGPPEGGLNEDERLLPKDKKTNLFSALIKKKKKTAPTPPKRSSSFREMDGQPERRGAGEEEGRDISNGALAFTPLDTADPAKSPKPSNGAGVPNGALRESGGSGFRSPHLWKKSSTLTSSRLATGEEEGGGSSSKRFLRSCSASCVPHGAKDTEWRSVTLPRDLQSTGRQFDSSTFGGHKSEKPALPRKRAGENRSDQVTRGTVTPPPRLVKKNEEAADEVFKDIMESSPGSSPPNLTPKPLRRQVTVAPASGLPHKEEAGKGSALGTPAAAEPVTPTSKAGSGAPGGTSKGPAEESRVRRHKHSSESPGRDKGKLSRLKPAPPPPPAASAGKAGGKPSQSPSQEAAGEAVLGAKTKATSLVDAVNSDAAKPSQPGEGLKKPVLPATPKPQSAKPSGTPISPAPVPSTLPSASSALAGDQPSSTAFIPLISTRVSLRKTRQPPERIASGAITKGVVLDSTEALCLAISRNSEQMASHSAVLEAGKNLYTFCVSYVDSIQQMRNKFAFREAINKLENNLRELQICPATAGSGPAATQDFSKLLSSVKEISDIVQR
Protocol: Reactions were carried out in a solution containing 100 mM HEPES (pH 7.5), 10 mM MgCl2, 25 mM NaCl, 300 μM NADH, 1 mM DTT and 3% DMSO. […] Final concentrations of the components of the coupled enzyme system were 2.5 mM phosphoenolpyruvate, 200 μM NADH, 60 μg/ml pyruvate kinase and 20 μg/ml lactate dehydrogenase.
An assay stock buffer solution was prepared containing all of the reagents listed above with the exception of ATP and the test compound of interest. […] Rates of reaction were obtained using a Molecular Devices Spectramax plate reader (Sunnyvale, Calif.) over 10 min at 30° C. The Ki values were determined from the residual rate data as a function of inhibitor concentration using nonlinear regression (Prism 3.0, Graphpad Software, San Diego, Calif.).

Arg (Abl-2) = Arg (Abl-2) (Homo sapiens, UniProt P42684); test: Arg (Abl-2) inhibition screen; assay type: biochemical; conditions: Table 5; ATP at or close to Km
Sequence of Arg (Abl-2) (P42684 whole entry, species assumed): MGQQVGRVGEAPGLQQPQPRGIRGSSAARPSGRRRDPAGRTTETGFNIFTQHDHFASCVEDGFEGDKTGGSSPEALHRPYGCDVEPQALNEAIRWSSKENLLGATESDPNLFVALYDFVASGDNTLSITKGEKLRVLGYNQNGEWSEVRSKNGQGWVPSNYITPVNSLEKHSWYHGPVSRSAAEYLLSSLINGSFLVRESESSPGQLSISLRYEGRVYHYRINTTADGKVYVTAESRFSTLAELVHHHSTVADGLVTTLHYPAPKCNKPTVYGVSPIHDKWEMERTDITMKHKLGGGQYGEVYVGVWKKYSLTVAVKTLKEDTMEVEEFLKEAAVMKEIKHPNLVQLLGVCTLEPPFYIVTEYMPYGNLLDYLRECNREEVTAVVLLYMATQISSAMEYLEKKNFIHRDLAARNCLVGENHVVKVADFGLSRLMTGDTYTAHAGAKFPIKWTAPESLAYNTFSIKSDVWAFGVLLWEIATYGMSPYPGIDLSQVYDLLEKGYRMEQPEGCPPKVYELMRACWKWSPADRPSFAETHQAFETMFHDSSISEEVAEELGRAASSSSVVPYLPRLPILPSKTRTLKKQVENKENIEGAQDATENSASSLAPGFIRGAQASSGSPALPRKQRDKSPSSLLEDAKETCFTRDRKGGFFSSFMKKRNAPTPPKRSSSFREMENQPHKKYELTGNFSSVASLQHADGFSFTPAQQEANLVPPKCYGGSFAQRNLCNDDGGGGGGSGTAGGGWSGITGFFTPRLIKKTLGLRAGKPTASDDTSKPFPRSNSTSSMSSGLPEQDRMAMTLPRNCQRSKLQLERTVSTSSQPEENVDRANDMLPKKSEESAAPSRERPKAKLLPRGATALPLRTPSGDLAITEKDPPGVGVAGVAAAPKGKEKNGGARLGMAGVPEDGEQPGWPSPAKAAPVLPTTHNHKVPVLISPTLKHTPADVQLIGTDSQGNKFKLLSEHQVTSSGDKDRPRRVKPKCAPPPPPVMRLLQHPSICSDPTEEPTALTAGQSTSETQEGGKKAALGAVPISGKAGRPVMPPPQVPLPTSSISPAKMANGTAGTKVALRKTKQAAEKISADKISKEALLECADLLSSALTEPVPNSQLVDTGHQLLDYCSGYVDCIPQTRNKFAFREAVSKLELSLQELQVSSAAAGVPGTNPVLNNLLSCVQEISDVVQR
Source text: (§1) Compound(s) were screened for their ability to inhibit Arg (Abl-2), FGFR1, MLK1, Tie2, and TrkA using screening methods known to one of ordinary skill in the art. All of the above enzymes were screened with ATP concentrations at or close to the Km for ATP.

FGFR1 = FGFR1 (Homo sapiens, UniProt P11362); test: FGFR1 inhibition screen; assay type: biochemical; conditions: Table 5; ATP at or close to Km
Sequence of FGFR1 (P11362 22-822, species assumed): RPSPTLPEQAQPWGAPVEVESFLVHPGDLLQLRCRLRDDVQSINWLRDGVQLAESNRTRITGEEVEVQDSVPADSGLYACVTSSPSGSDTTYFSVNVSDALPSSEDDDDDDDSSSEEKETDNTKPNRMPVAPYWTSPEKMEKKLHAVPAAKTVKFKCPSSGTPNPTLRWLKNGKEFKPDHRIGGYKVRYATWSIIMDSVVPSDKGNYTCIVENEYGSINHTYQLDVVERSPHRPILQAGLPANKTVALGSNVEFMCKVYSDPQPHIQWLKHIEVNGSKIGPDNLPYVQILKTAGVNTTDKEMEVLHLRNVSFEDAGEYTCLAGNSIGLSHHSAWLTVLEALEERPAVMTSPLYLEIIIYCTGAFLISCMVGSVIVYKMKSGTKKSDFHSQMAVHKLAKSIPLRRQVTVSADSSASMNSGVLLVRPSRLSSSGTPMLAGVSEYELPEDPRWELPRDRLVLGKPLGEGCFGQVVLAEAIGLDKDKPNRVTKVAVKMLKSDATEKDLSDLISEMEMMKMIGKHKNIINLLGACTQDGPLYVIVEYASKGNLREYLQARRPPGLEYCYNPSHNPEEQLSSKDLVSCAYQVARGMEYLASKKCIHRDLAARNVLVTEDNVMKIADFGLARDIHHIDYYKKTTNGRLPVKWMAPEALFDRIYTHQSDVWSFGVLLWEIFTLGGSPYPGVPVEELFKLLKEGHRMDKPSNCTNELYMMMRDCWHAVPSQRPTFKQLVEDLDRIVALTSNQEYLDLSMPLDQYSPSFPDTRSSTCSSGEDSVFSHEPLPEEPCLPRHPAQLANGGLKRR
Source text: as §1

[2] = COLO 205, read-out: Colo205 inh 3H-Thy incorporation after 96 hours IC50 (uM)
[3] = 400 μM ATP, 40 nM Aurora-2, read-out: Aurora A Ki
[4] = COLO 205, read-out: Colo205 inh 3H-Thy incorporation after 72 hours IC50 (uM)

Compound | Ki (Aurora-2 (Aurora A)) [µM] | Ki (Aurora-1 (Aurora B)) [µM] | IC50 (Colo205 cells; [2]) [µM] | Ki (Aurora-2 (Aurora A); [3]) [µM] | IC50 (Colo205 cells; COLO 205, Colo205 cells, 96 hours, read-out: Colo205 inh 3H-Thy incorporation after 96 hours IC50) [µM] | IC50 (Colo205 cells; [4]) [µM] | Ki [1] [µM] | IC50 (Arg (Abl-2)) [µM] | IC50 (FGFR1) [µM]
CCC(=O)Nc1ccc(Sc2nc(Nc3cc(C)n[nH]3)cc(N3CC(O)(CC(C)(C)C)C3)n2)cc1 [Compound I-1] | 0.0004 | 0.007 | 0.047 |  |  |  |  |  | 
CCC(=O)Nc1ccc(Sc2nc(Nc3cc(C)n[nH]3)cc(N3CC(O)(CC)C3)n2)cc1 [Compound I-4] |  | 0.015 |  | 0.0017 | 0.092 |  |  |  | 
Cc1cc(Nc2cc(N3CC(F)(C4CC4)C3)nc(Sc3ccc(NC(=O)C4(C(F)(F)F)CC4)cc3)n2)[nH]n1 [Compound I-15] |  | 0.0096 |  | 0.0004 |  | 0.026 | 0.057 |  | 
CCC(=O)Nc1ccc(Sc2nc(Nc3cc(C)[nH]n3)cc(N3CC(F)(C4CC4)C3)n2)cc1 [Compound I-16] |  | 0.024 |  | 0.001 |  | 0.051 | 0.17 |  | 
Cc1cc(Nc2cc(N3CC(F)(C4CC4)C3)nc(Sc3ccc(NC(=O)CCC(F)(F)F)cc3)n2)[nH]n1 [Compound I-17] |  | 0.012 | 0.019 | 0.00062 |  | 0.026 | 0.022 | 0.21 | 0.088
